In patent US20140193455A1, “PHARMACEUTICAL COMPOSITION FOR PREVENTION OR TREATMENT OF STEROID-INDUCED DIABETES AND HEALTH FUNCTIONAL FOOD” (priority 2013, published 2014):

System: INS-1 cells
Experiment: Cell counting analysis (trypan blue) of living INS-1 cells
Format: cell-based, rat
Settings: for decrease in INS-1 cell survival compared to the control: FIG. 4; for decrease in survival of INS-1 cells compared to control: treated alone
Description: The rat insulin-secreting cell line INS-1 was maintained in RPMI-1640 medium containing 10% heat-inactivated FBS (fetal bovine serum), 100 units/ml of penicillin and 100 μg/ml of streptomycin at 37° C. under the conditions of 95% humidity and 5% CO2.
One day before treatment with reagent or CLCE, INS-1 cells were cultured in a 24-well plate at a concentration of 1×10^5 cells/well in a volume of 500 μL. The INS-1 cells were treated with the indicated concentrations of reagent (Dex, LY294002, IL-1β, STZ, TG or TN) and/or CLCE for the indicated time. At each point of time, the cells were stained with trypan blue dye, and the living INS-1 cells were counted under a microscope. The cell counting was repeated three times. Data were expressed as the mean of three independent experiments.

| Compound | decrease in INS-1 cell survival compared to the control (treated alone for 24 hours) | decrease in survival of INS-1 cells compared to control (FIG. 3) | further results |
| --- | --- | --- | --- |
| CN(N=O)C(=O)N[C@H]1C(O)O[C@H](CO)[C@@H](O)[C@@H]1O (mixture of isomers) [STZ, streptozotocin] | ~82% | – | – |
| C[C@@H]1C[C@H]2[C@@H]3CCC4=CC(=O)C=C[C@]4(C)[C@@]3(F)[C@@H](O)C[C@]2(C)[C@@]1(O)C(=O)CO [Dex, dexamethasone] | – | about 55% | decrease in survival rate of INS-1 cells (treated alone for 24 hours, FIG. 1A): about 50% |
| O=c1cc(N2CCOCC2)oc2c(-c3ccccc3)cccc12 [LY294002] | – | about 24% | degree of the decrease in survival of INS-1 cells (combination of Dex and LY294002, FIG. 3): 75% |
| C/C=C(/C)C(=O)O[C@H]1C(C)=C2[C@H]([C@@H]1OC(=O)CCCCCCC)[C@@](C)(OC(C)=O)C[C@H](OC(=O)CCC)[C@@]1(O)[C@H]2OC(=O)[C@@]1(C)O [TG, thapsigargin] | ~88% | – | – |
| interleukin-1β [IL-1β] | about 45% | – | – |
| tunicamycin [TN] | ~50% | – | – |
